Columns and labels:
Format in all cases: biochemical
hSIRT3 102-399 [1] = molecular target: T1, hSIRT3 102-399 (Homo sapiens, UniProt Q9NTG7); experiment: HPLC assay of hSIRT3 102-399 deacetylation of MnSOD peptide, Conditions I (steady state): 1000 μM NAD+, 50 μM MnSOD peptide; conditions: for Conditions I, Effect: Conditions I (steady state), HPLC/FdL; for Activity test, Conditions I, HPLC: Conditions I: 1000 μM NAD+, 50 μM MnSOD peptide, 50 μM compound, 30 min, triplicate, same values as % control in Table 3
T1 construct: His-tag; purchased Enzo Life Sciences (Farmingdale, NY)
T1 sequence (Q9NTG7 102-399): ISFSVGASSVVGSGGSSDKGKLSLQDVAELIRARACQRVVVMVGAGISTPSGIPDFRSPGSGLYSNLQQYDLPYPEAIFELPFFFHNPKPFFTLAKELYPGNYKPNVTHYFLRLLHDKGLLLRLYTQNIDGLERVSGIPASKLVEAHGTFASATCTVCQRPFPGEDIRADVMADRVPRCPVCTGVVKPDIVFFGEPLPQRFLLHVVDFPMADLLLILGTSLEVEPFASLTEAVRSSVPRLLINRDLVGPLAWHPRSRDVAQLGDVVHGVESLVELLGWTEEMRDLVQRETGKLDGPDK
Procedure: […] The peptide product and substrate were resolved using HPLC (reversed-phase C18 HPLC Column). Solvent A was composed of 90% HPLC grade water and 10% acetonitrile with 0.05% (v/v) TFA. Solvent B was composed of acetonitrile with 0.02% (v/v) TFA. […] Then returned to the starting conditions (0% B) within 5 min. Solvent A percentage (100%) was maintained at 100% for 5 additional minutes (36 min total run time).

hSIRT3 102-399 [2] = molecular target: T1, hSIRT3 102-399; experiment: HPLC assay of hSIRT3 102-399 deacetylation of MnSOD peptide, Conditions II (non-steady state): 50 μM NAD+, 600 μM peptide; conditions: for Conditions II, Effect: Conditions II (non-steady state); for Activity test, Conditions II, HPLC: Conditions II: 50 μM NAD+, 600 μM peptide, 10 μM compound, triplicate
Procedure: FIG. 5. Sirt3 activation by top ranked hit compounds.
The deacetylation activity of SIRT3 was detected in the presence of 10 μM compound of AA8AC40 under non-steady state condition (FIG. 5) using HPLC-based assay. […] The test compound is expected to experience three phases (presteady state, steady-state, and post steady state) during the enzymatic reaction. The pre and post-steady state can be considered as non-steady state, in which the enzyme concentration vs. NAD^+ substrate concentration ratio is high. Depending on the initial ratio of enzyme to limiting substrate in the system (and the ratio of enzyme to test compound concentration), the net effect of test compound over the course of the reaction can be either inhibitory or activating, with activation occurring if this ratio is above a threshold value.
Enzymatic reactions included either 1000 μM NAD^+ and 50 μM MnSOD peptide (Conditions I) or 50 μM NAD^+ and 600 μM peptide substrate (Conditions II) in presence of hit compounds (50 μM (Conditions I) or 10 μM (Conditions II)), in a HDAC buffer (50 mM TRIS-HCl, pH 8.0, containing 137 mM sodium chloride, 2.7 mM potassium chloride, and 1 mM magnesium chloride) dimethyl sulfoxide solution 95/5. […] The reaction was terminated by adding a stopping solution (final concentration of 2% TFA, 5 mM Nicotinamide). The peptide product and substrate were resolved using HPLC (reversed-phase C18 HPLC Column). Solvent A was composed of 90% HPLC grade water and 10% acetonitrile with 0.05% (v/v) TFA. Solvent B was composed of acetonitrile with 0.02% (v/v) TFA. […] Then returned to the starting conditions (0% B) within 5 min. Solvent A percentage (100%) was maintained at 100% for 5 additional minutes (36 min total run time).

hSIRT3 = molecular target: T2, hSIRT3 (Homo sapiens, UniProt Q9NTG7); experiment: Fluorescence-based SIRT3 deacetylation assay using FdL2 peptide, steady state (Conditions I); conditions: triplicate
T2 construct: His-tag; purchased Enzo Life Sciences (Farmingdale, NY)
T2 sequence (Q9NTG7 102-399): T1 sequence (Q9NTG7 102-399)
Procedure: FIG. 4. Effect of top ranked hit compounds on Sirt3 deacetylation activity.
The 6 top ranked compounds from DEL screening were tested modulation effect of SIRT3 using fluorescence-based assay (FIG. 4).
The enzymatic reactions were carried out similar to as described above. The reaction was terminated by adding the 1× developer 2 mM NAM solution and measured the fluorescence on TECAN microplate reader. The raw data were fitted to the defined model equations using GraphPad Prism (GraphPad Software, Inc, CA).

Nc1nc2n(n1)C(c1ccc(OCc3ccccc3)cc1)CC(c1ccc(Cl)cc1)N2 (stereo not drawn) [FIG. 14]
Conditions I, Effect (hSIRT3 102-399 [1]): Slight Activator | Activity test, Conditions I, HPLC (hSIRT3 102-399 [1]): 106.7 | Conditions II, Effect (hSIRT3 102-399 [2]): Activator | Activity test, Conditions II, HPLC (hSIRT3 102-399 [2]): 108.1 | Activity test, Conditions I, FdL (hSIRT3): 101.2

O=C1NCCN(C(=O)c2cccc(-c3cnn4ccccc34)c2)C1CCO (stereo not drawn) [FIG. 227]
Conditions I, Effect (hSIRT3 102-399 [1]): Inhibitor | Activity test, Conditions I, HPLC (hSIRT3 102-399 [1]): 98.2 | % Control in vitro modulation, Steady-state (hSIRT3 102-399 [1]; steady state, 10 μM modulator): 98.2 % Control | Conditions II, Effect (hSIRT3 102-399 [2]): Slight Activator | Activity test, Conditions II, HPLC (hSIRT3 102-399 [2]): 103.1 | % Control in vitro modulation, Non-Steady state (hSIRT3 102-399 [2]; non-steady state, 10 μM modulator): 103.1 % Control | Activity test, Conditions I, FdL (hSIRT3): 88.1
